The source of these data is patent publication US9505780B2, “Thienopyranones as kinase and epigenetic inhibitors” (SignalRx Pharmaceuticals, Inc., priority 2014, dated 2016).

Where only a bound is given, the exact number is not on record here.

One experiment relates to SKNBE (2) cells. Kind of experiment: Western blot of p-AKT and N-MYC in SKNBE(2) cells. The experiment is classed as cell-based, human. The note with it: 24 hrs treatment, IGF stimulated. On the procedure: Cells were stimulated with 50 ng/ml IGF for 30 min and used for lysate preparation. Proteins were quantitated by the BCA protein assay (Pierce). Equal amounts of protein were resolved by polyacrylamide gels, transferred to nitrocellulose membrane and probed by Western blot with the following primary antibodies: p-AKT(Ser473), API (Cell Signaling Technologies), N-MYC, CyclinD1 and β-actin (Santa Cruz Biotechnology).
Background: In western blotting, separated proteins are transferred to a membrane and probed.

The next experiment concerns the target BRD4 (Homo sapiens, UniProt O60885). The experiment can be described thus: BRD4 inhibition assay (region not distinguished). In kind it is biochemical. The following applies: for BRD4 inhibition: BRD4 regions 1 and 2.
A further experiment has as its target BRD4-2 (Homo sapiens (Human), UniProt O60885). Kind of experiment: BRD4 region 2 (BRD4-2) inhibition. The experiment is classed as biochemical.
The next experiment concerns the target BRD4-1 (Homo sapiens (Human), UniProt O60885). The experiment can be described thus: BRD4 region 1 (BRD4-1) inhibition. In kind it is biochemical.
The target in another experiment is PI3Kγ (Homo sapiens (Human), UniProt P48736). The experiment can be described thus: PI3K gamma isoform inhibition. The experiment is classed as biochemical.
PI3Kγ, sequence (P48736 whole entry, canonical isoform): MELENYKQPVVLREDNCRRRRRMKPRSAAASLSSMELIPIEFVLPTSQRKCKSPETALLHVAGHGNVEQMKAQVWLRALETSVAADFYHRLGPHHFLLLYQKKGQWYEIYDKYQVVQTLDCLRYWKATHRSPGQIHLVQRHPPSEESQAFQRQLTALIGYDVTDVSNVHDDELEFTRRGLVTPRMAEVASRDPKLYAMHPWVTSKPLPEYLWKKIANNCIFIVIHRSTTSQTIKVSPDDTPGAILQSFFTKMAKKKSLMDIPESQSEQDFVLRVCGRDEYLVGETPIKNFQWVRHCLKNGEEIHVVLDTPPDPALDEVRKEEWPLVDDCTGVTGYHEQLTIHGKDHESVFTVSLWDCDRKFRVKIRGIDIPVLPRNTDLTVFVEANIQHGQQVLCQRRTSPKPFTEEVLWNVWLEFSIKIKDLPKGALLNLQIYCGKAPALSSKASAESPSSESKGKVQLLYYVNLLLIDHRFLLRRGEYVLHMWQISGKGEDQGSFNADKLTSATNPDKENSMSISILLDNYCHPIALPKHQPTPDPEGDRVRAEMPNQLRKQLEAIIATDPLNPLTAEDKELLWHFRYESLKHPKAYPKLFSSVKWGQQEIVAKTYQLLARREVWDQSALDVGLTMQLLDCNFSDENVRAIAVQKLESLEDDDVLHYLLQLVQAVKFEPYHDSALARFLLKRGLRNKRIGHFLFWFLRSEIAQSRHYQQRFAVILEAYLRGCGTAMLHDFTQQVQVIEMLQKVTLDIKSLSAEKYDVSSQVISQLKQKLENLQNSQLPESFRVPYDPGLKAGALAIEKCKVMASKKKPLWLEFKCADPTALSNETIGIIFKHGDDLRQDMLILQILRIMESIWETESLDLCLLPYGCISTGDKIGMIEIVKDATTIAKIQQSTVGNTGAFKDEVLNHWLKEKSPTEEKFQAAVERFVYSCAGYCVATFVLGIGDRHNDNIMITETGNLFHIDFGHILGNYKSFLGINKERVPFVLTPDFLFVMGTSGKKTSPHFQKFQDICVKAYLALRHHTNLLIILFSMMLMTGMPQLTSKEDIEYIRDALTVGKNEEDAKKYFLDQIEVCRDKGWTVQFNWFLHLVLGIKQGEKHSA
A further experiment addresses PI3Kβ (Homo sapiens (Human), UniProt P42338). Kind of experiment: PI3K beta isoform inhibition. The experiment is classed as biochemical.
Another experiment concerns the target PI3Kδ (Homo sapiens (Human), UniProt O00329). The experiment can be described thus: PI3K delta isoform inhibition. The experiment is classed as biochemical. From the text:
Inhibitory activity can be determined routinely using known methods and also front commercial vendors offering this service for kinases and bromodomain proteins. […] In vivo, PI3K inhibition can be determined from target tissue biopsies by standard tissue processing to disrupt cells and then performing Western Blot analysis to determine the presence or absence of pAKT (substrate of PI3K) relative to a control sample. The activity of a compound of the invention as an inhibitor of a bromodomain-containing protein, such as a BET protein, such as BRD2, BRD3, BRD4, and/or BRDT, or an isoform or mutant thereof may be determined in vitro, in vivo, or in a cell line. In vitro assays include assays that determine inhibition of bromodomain-containing proteins. Alternatively, inhibitor binding may be determined by running a competition experiment where a provided compound is incubated with a bromodomain-containing protein, such as a BET protein bound to known ligands, labeled or unlabeled. For example, bromodomain inhibition can be determined in vitro using Alpha Screen Technology (http://www.reactionbiology.com/webapps/site/NewsPDFs/Bromodomain%20Assay%20Platform%20for%20Drug%/20Screening%20and%20Discovery.pdf). In vivo bromodomain inhibition can be determined indirectly by evaluating the amount of protect present of proteins whose genes' transcription is influenced or controlled by the bromodomain protein, for example, the MYCN protein transcription is controlled by BRD4 (J. E. Delmore et al., Cell 2011, 146, 904-917; A. Puissant, Cancer Discov. 2013, 3, 308-323). Bromodomain inhibition may also be predicted by in silico modeling as described below in the Examples.
Several TP Scaffold compounds (structures shown in FIG. 2 and Table 3) were tested for inhibition activity against isoforms of PI3K (alpha, beta, gamma, and delta isoforms) and the bromodomain protein BRD4 at regions 1 (BRD4-1) and 2 (BRD4-2).

A further experiment addresses PI3Kα (Homo sapiens (Human), UniProt P42336). The experiment can be described thus: PI3K alpha isoform inhibition. The experiment is classed as biochemical.
Another experiment deals with HDAC. The experiment can be described thus: HDAC inhibitory activity, commercially available kit. The experiment is classed as biochemical. The following applies: for HDAC inhibitory activity: 1, 10, 50 μM.

PI3Kβ, sequence (P42338 whole entry, canonical isoform): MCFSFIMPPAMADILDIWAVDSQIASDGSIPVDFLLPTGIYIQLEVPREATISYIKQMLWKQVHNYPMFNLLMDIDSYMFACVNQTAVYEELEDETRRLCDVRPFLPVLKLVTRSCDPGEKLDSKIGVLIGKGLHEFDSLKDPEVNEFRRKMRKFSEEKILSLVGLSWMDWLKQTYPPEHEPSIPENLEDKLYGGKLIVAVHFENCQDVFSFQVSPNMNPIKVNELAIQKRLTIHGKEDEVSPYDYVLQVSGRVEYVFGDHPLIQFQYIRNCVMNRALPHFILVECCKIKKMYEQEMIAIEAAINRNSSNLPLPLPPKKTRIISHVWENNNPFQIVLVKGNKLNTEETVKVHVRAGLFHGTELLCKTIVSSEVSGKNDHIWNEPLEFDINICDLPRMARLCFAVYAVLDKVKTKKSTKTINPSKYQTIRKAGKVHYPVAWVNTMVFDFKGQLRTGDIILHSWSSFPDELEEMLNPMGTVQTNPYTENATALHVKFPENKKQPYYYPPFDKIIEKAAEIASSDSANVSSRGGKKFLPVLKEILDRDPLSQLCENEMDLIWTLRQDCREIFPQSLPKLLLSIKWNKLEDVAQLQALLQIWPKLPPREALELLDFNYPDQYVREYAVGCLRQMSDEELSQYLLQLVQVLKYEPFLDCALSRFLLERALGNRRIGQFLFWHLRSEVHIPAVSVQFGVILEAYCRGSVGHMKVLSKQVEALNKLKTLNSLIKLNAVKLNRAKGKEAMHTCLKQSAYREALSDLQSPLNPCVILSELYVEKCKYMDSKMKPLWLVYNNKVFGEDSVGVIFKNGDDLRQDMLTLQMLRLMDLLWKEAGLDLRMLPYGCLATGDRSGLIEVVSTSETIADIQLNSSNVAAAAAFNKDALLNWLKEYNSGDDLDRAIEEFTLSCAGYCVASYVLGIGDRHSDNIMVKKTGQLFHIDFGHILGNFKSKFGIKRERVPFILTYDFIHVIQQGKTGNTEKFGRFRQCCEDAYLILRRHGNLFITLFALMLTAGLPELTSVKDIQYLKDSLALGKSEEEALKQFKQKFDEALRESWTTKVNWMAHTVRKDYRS
PI3Kβ, sequence (P27986 whole entry partner, canonical isoform): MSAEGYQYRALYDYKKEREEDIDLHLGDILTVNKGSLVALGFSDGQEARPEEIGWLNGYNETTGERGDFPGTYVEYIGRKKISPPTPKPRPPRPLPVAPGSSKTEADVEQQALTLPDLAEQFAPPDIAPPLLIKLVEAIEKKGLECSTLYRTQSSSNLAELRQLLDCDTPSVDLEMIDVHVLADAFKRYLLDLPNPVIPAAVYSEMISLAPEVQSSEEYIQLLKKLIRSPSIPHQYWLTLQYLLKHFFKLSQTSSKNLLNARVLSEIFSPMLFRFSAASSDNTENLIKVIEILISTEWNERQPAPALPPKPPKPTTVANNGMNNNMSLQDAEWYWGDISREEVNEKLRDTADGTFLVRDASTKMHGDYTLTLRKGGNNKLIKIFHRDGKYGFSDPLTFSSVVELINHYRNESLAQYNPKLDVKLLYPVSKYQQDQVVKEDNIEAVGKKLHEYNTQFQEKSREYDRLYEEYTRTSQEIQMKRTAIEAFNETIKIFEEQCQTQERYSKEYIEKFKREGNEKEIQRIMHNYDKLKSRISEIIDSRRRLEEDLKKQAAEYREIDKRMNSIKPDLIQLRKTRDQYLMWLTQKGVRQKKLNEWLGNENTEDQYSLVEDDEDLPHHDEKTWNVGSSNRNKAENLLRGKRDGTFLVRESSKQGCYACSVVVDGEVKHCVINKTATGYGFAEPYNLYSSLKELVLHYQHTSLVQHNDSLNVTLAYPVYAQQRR
PI3Kα, sequence (P42336 whole entry, canonical isoform): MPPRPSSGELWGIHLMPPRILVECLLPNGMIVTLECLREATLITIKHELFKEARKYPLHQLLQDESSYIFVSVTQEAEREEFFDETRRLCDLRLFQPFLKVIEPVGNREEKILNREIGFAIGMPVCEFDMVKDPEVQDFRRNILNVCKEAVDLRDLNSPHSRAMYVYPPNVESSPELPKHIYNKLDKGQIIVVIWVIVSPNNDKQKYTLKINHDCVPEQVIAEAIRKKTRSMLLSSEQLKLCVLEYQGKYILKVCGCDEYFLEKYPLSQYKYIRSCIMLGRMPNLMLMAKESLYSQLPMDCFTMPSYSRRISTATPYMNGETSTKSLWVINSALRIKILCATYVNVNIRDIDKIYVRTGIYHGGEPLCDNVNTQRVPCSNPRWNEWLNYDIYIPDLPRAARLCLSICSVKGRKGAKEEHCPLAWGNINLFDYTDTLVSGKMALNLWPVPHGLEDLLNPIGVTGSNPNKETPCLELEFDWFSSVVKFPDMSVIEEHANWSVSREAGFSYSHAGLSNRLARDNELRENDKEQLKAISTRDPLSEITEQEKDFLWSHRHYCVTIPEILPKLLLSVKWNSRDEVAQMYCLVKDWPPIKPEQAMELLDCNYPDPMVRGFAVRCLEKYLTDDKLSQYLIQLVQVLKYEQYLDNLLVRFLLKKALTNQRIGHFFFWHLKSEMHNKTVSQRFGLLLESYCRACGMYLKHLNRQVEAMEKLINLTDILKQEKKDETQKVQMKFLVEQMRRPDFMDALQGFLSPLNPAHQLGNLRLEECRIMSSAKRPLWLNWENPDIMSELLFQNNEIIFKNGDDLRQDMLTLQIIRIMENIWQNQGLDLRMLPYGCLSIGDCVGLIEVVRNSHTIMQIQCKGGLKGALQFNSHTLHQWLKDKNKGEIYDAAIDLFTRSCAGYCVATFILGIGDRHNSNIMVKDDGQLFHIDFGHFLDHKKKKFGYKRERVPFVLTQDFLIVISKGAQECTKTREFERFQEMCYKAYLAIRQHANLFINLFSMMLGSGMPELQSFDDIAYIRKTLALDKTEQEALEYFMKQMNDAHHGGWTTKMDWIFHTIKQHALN
PI3Kα, sequence (P27986 whole entry partner, canonical isoform): as the sequence (P27986 whole entry partner, canonical isoform) above
PI3Kδ, sequence (O00329 whole entry, canonical isoform): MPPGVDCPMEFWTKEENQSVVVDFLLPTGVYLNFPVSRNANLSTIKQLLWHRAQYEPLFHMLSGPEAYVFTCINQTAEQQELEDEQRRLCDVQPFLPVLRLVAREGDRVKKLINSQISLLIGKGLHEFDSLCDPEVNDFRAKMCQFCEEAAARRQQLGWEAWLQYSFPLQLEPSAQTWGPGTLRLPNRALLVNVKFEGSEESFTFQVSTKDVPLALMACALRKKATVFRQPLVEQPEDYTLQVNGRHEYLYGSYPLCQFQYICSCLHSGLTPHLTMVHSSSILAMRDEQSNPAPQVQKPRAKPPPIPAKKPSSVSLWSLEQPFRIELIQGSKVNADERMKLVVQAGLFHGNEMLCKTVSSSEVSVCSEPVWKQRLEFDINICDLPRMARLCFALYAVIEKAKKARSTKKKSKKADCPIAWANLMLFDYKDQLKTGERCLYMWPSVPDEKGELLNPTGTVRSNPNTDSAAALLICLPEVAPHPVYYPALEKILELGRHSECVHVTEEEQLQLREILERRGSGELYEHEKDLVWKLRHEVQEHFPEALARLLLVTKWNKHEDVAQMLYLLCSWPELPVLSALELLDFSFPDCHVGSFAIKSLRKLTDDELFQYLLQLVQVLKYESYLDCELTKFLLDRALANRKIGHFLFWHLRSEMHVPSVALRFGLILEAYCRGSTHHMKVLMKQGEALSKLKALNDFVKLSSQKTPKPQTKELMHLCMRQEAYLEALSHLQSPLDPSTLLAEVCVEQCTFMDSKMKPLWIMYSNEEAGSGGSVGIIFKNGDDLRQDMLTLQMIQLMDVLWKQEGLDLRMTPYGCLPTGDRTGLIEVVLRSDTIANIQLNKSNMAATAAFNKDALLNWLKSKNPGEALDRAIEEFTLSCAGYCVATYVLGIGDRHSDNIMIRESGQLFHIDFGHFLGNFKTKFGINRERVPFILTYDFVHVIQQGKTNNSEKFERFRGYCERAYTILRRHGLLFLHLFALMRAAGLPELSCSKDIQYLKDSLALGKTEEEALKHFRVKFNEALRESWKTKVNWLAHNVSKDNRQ
PI3Kδ, sequence (P27986 whole entry partner, canonical isoform): as the sequence (P27986 whole entry partner, canonical isoform) above

As for `Cn1c(=O)n(-c2ccc(C(C)(C)C#N)cc2)c2c3cc(-c4cnc5ccccc5c4)ccc3ncc21` [BEZ235], the “pAKT, Western blot” value in the experiment with SKNBE (2) cells is given as “decreased pAKT”.

Take `Nc1cc(C(F)(F)F)c(-c2cc(N3CCOCC3)nc(N3CCOCC3)n2)cn1` [BKM120]: the “BRD4 inhibition” value at BRD4 was “no BRD4 inhibition”. Besides, the “pAKT, Western blot” value with SKNBE (2) cells is recorded as “decreased pAKT”.

Regarding `CC[C@H](Nc1ncnc2[nH]cnc12)c1nc2cccc(F)c2c(=O)n1-c1ccccc1` [CAL101], at BRD4, the IC50 is > 50000 nM and the “BRD4 inhibition” value is listed as “no BRD4 inhibition”. Also, the “pAKT, Western blot” value in the experiment with SKNBE (2) cells is reported as “decreased pAKT”.

For `O=c1cc(N2CCOCC2)oc2c(-c3ccccc3)csc12` [Cmpd 6], the IC50 against BRD4-2 stood at 3450 nM; on BRD4-1 it was 2170 nM; on PI3Kγ it was 1570 nM; against PI3Kβ, 378 nM; at PI3Kδ it was 784 nM.

Turning to `O=c1cc(N2CCOCC2)oc2ccsc12` [Cmpd 10], the IC50 at PI3Kα was 7160 nM; against BRD4-2, > 50000 nM; against BRD4-1, > 50000 nM; against PI3Kγ it was > 50000 nM; at PI3Kβ, 9250 nM; on PI3Kδ, > 50000 nM.

As to `Nc1cccc(-c2csc3c(=O)cc(N4CCOCC4)oc23)c1` [Cmpd 11, 3-(3-Amino-phenyl)-5-morpholin-4-yl-thieno[3,2-b]pyran-7-one], the IC50 against BRD4-2 was 1740 nM; at BRD4-1, 843 nM; against PI3Kγ it was 6300 nM; on PI3Kδ, 9810 nM.

For `CCOC(=O)c1ccc(-c2csc3c(=O)cc(N4CCOCC4)oc23)cc1` [Cmpd 25], the IC50 at BRD4-2 was 628 nM; at BRD4-1, 277 nM; at PI3Kγ, 1170 nM; against PI3Kβ it was 1750 nM; at PI3Kδ it was 27 nM.

`COC(=O)c1ccc(-c2csc3c(=O)cc(N4CCOCC4)oc23)cc1` [Cmpd 44, methyl 4-(5-morpholino-7-oxo-7H-thieno[3,2-b]pyran-3-yl)benzoate]: the “BRD4 inhibition” value on BRD4 is “showed activity”. Also, the “HDAC inhibitory activity” value in the experiment with HDAC is “No inhibitor activity”. In addition, the half-maximal inhibitory concentration (IC50) on BRD4-2 was 1470 nM; on BRD4-1, 811 nM; at PI3Kγ, 547 nM; on PI3Kβ it was 3600 nM; on PI3Kδ, 12 nM.

For `O=C(O)c1ccc(-c2csc3c(=O)cc(N4CCOCC4)oc23)cc1` [Cmpd 100], the IC50 is 55.2 nM on PI3Kα; 2760 nM against BRD4-2; 1090 nM at BRD4-1; 259 nM against PI3Kγ; 295 nM against PI3Kδ.

On to `O=C(NO)c1ccc(-c2csc3c(=O)cc(N4CCOCC4)oc23)cc1` [Cmpd 118], for which the IC50 turned out to be 90 nM on PI3Kα; 235 nM at BRD4-2; 193 nM at BRD4-1; 806 nM at PI3Kγ; 53 nM on PI3Kδ. Besides, the “HDAC activity inhibited versus control” value with HDAC (1 μM) worked out at 17%; in the experiment on HDAC (10 μM), 25%; in the experiment on HDAC (50 μM), 41%. Moreover, the “HDAC inhibitory activity” value with HDAC is “significant HDAC inhibitory activity”.

`O=C(Nc1ccc(-c2csc3c(=O)cc(N4CCOCC4)oc23)cc1)c1ccncc1` [Cmpd 120]: the IC50 against PI3Kα is 95 nM; against BRD4-2, 393 nM; at BRD4-1, 326 nM; against PI3Kγ, 556 nM; at PI3Kδ, 21 nM.

For the compound `O=C(Nc1ccc(-c2csc3c(=O)cc(N4CCOCC4)oc23)cc1)c1ccc(F)c(F)c1Nc1ccc(I)cc1F` [Cmpd 121], the values for the IC50 on PI3Kα, against BRD4-2 and against BRD4-1 were < 10000 nM, 2310 nM and 255 nM, respectively.

With `CC(C)(C)c1cc(NC(=O)Nc2cccc(-c3csc4c(=O)cc(N5CCOCC5)oc34)c2)no1` [Cmpd 122, 1-(5-tert-Butyl-isoxazol-3-yl)-3-[3-(5-morpholin-4-yl-7-oxo-7H-thieno[3,2-b]pyran-3-yl)-phenyl]-urea], the IC50 against PI3Kα was 950 nM; against BRD4-2 it was 4880 nM; at BRD4-1 it was 2570 nM; against PI3Kγ, 8650 nM; on PI3Kδ, 1350 nM.

Take `O=C(Nc1cccc(-c2csc3c(=O)cc(N4CCOCC4)oc23)c1)Nc1ccc(Cl)c(C(F)(F)F)c1` [Cmpd 123, 1-(4-Chloro-3-trifluoromethyl-phenyl)-3-[3-(5-morpholin-4-yl-7-oxo-7H-thieno[3,2-b]pyran-3-yl)-phenyl]-urea]: the IC50 was 7670 nM against PI3Kα; > 50000 nM on BRD4-2; > 50000 nM on BRD4-1; > 16700 nM against PI3Kγ; 9750 nM at PI3Kδ.

In the case of `O=c1cc(N2CCSCC2)oc2c(-c3ccc4c(c3)OCCO4)csc12` [Cmpd 124, 3-(2,3-Dihydrobenzo[b][1,4]dioxan-6-yl)-5-thiomorpholino-7H-thieno[3,2-b]pyran-7-one], the IC50 against PI3Kα is 1580 nM; against BRD4-2, 2800 nM; on BRD4-1, 519 nM; against PI3Kγ, 4630 nM; against PI3Kδ, 480 nM.

Regarding `O=c1cc(N2CCOCC2)oc2c(Br)csc12` [Cmpd 126, 3-Bromo-5-morpholin-4-yl-thieno[3,2-b]pyran-7-one], the IC50 against BRD4-2 was > 50000 nM; against BRD4-1, > 50000 nM; on PI3Kγ, 2200 nM; at PI3Kδ, 1480 nM.

Turning to `O=c1cc(N2CCSCC2)oc2c(Br)csc12` [Cmpd 127, 3-Bromo-5-thiomorpholino-7H-thieno[3,2-b]pyran-7-one], the IC50 was 1720 nM against PI3Kα; 34200 nM on BRD4-2; 32600 nM against BRD4-1; 9770 nM against PI3Kγ; 3300 nM at PI3Kδ.

In the case of `O=c1cc(N2CCOCC2)oc2c(C#Cc3ccccc3)csc12` [Cmpd 128], the IC50 against BRD4-2 was 10700 nM; against BRD4-1, 4000 nM.

In the case of `O=c1cc(N2CCOCC2)oc2c(-c3ccn[nH]3)csc12` [Cmpd 129, 5-Morpholino-3-(2H-pyrazol-3-yl)-4-oxa-1-thia-7-Indenone], the results for the IC50 on BRD4-2 and against BRD4-1 were 9410 nM and 2230 nM, respectively.

In the case of `Cn1ncc2ccc(-c3csc4c(=O)cc(N5CCOCC5)oc34)cc21` [Cmpd 130, 3-(1-Methyl-1H-indazol-6-yl)-5-morpholino-4-oxa-1-thia-7-Indenone], the results for the IC50 on BRD4-2 and against BRD4-1 were 695 nM and 349 nM, respectively.

As to `Cc1n[nH]c2cc(-c3csc4c(=O)cc(N5CCOCC5)oc34)ccc12` [Cmpd 131, 3-(3-Methyl-1H-indazol-6-yl)-5-morpholino-4-oxa-1-thia-7-Indenone], the IC50 against BRD4-2 was 446 nM; on BRD4-1 it was 231 nM.

Regarding `CNC(=O)Nc1cccc(-c2csc3c(=O)cc(N4CCOCC4)oc23)c1` [Cmpd 133, 3-[m-(3-Methylureido)phenyl]-5-morpholino-4-oxa-1-thia-7-indenone], the IC50 on BRD4-2 was found to be 1120 nM; against BRD4-1, 558 nM.

For `CN(C)C(=O)Nc1cccc(-c2csc3c(=O)cc(N4CCOCC4)oc23)c1` [Cmpd 134, 3-[m-(3-Dimethylureido)phenyl]-5-morpholino-4-oxa-1-thia-7-indenone], the half-maximal inhibitory concentration (IC50) on BRD4-2 was determined as 1850 nM; on BRD4-1, 662 nM.

As for `Cc1cccc(NC(=O)Nc2cccc(-c3csc4c(=O)cc(N5CCOCC5)oc34)c2)c1` [Cmpd 135, 5-Morpholino-3-{m-[3-(m-tolyl)ureido]phenyl}-4-oxa-1-thia-7-indenone], the results for the IC50 against BRD4-2 and on BRD4-1 were 1270 nM and 646 nM, respectively.

As to `O=C(Nc1cccc(-c2csc3c(=O)cc(N4CCOCC4)oc23)c1)Nc1cccc(C(F)(F)F)c1` [Cmpd 136], the IC50 at BRD4-2 is 1260 nM; against BRD4-1 it was 6150 nM.

On to `Cc1ccc(C)c(NC(=O)Nc2cccc(-c3csc4c(=O)cc(N5CCOCC5)oc34)c2)c1` [Cmpd 137, 5-Morpholino-3-{m-[3-(2,5-xylyl)ureido]phenyl}-4-oxa-1-thia-7-indenone], for which the IC50 on BRD4-2 turned out to be 1260 nM; at BRD4-1, 748 nM.

As usually defined, the IC50 is the concentration needed to halve the response being measured. A low value points to higher potency.
